Assay [1] relates to unweighting atrophy of the soleus muscle. As to the kind of experiment: Inhibition of unweighting atrophy of the soleus muscle in juvenile rats (muscle protein content). The assay is classed as in vivo, rat. The settings on record: for Protein, End (day 3 of unweighting) / Effect (%), change in protein content during day 3 of unweighting: Table 2; for Protein, End (day 3 of unweighting): 24 hours after in situ soleus injection at day 2 of unweighting, mersalyl 200 nM aqueous; for Protein, End (day 3 of unweighting) / Protein, Treatment (unweighted muscle): MCP inhibitor 1 mM in DMSO; for Effect (%), change in protein content during day 3 of unweighting: End versus Start (estimated day 2 content); for Effect (%) on unweighted muscle protein / Protein, Treatment (unweighted muscle): Table 3; for Effect (%) on unweighted muscle protein: Treatment versus Vehicle contralateral muscle; for Protein, Treatment (unweighted muscle): treated soleus, contralateral muscle received vehicle, mersalyl 200 nM. As to the method: The effect of several inhibitors on the unweighting atrophy of the soleus muscle in juvenile rats was determined. See Tischler, M. E. (1990) Metabolism 39/7: 756-763 (hereinafter "Tischler--1990") for a general discussion of the procedure.
Juvenile female Sprague-Dawley rates (80-90 g) were tail-cast, hind limb suspended as in Jetspers, S. R. and Tischler, M. E., (1984) J. Appl. Physiol. 57: 1472-1479. The animal's hind limbs were elevated above the floor of the cage with each animal housed individually. Animals had free access to food and water, and were weighed at the time of suspension and at time of termination. During the suspension period the animals were checked daily to ensure that their toes were not touching the floor of the cage, and that there was no swelling of the tail due to the cast.
Each experiment began with the suspension of 20 rats which were randomly divided into 4 groups of 5 animals each. Group A was suspended for just 2 days and provided baseline data to approximate the soleus muscle size in other animals suspended for longer times. Average body weights for the groups at the outset of the study were compared and used as a correction factor for body size differences. […] See Tischler--1990. At 2 days after unweighting commenced, an aqueous solution of mersalyl (200 nM; 4 μl/100 g initial body wt) was injected into one soleus, as described previously. The contralateral muscle was injected with a similar volume of 0.9% saline ("Vehicle"). The animals were maintained under Innovar-vet (10 μl/100 g body wt) tranquilization during the in situ injection procedure. After the injections, the animals were suspended for an additional 24 hours and the soleus was removed. Groups C and D for each experiment were used for testing each of two different embodiments of the disclosed compounds.
Animals were treated as in group B, except that 1 mM MCP inhibitor, contained in dimethysulfoxide (DMSO), was injected into the soleus of one leg and DMSO only into the contralateral soleus. Thus each experiment consisted of two control groups and the testing of MCP inhibitors of the invention. The completion of five such experiments with different pairs of inhibitors provided for an "n" value of 10 for testing each MCP inhibitor and with each tested in two different shipments of animals.
After the animal was sacrificed, the soleus was excised, trimmed of fat and connective tissue, and carefully weighed. The muscle was then homogenized in 10% trichloroacetic acid (TCA) and the precipitated protein pelleted by centrifugation. The pellet was then washed once with 10% TCA and once with ethanol:ether (1:1). The final pellet was solubilized in 4 ml of 1N sodium hydroxide. The sample was then analyzed for protein content by the biuret procedure, using albumin as a standard.
The effect of MCP inhibitors on total muscle protein content was examined primarily by paired comparison with the untreated contralateral muscle. The ratio of contents was calculated and then analyzed statistically by analysis of variance ("ANOVA"). The left leg was always the treated leg so that the protein content ratios could be compared to the non-treated control animals as well. In this way, a significant difference can be shown by comparing the protein content of the two legs, as well as the relative effectiveness of the tested MCP inhibitors. A paired student test was also performed for the effect of each separate treatment. The non-treated control data also provided an estimate of protein content of day 2. This allowed approximation of the protein changes over the 24 hours of treatment for each of the Groups B, C, and D.

Another assay has as its target T1, human MCP (Homo sapiens, UniProt P28074+Q99436).
T1 construct: Samples of human liver and brain obtained post-mortem were used for isolation and partial purification of MCP; from tissue; host or cells: human liver and brain, post-mortem
As to the kind of experiment: Determination of IC50 values for MCP inhibitors (chymotrypsin-like or trypsin-like activity of MCP). The assay is classed as biochemical. The settings on record: for % Inhibition (1 μM): 1 μM inhibitor. As to the method:
Samples of human liver and brain obtained post-mortem were used for isolation and partial purification of MCP by ion-exchange chromatography, ammonium sulfate precipitation, and gel filtration (e.g., Driscoll and Goldberg, Proc. Natl. Acad. Sci. 86, 787-791 (1989); Yamamoto et al., Biochim, Biophys. Acta 882, 297-304 (1986). For either starting material, tissue was homogenized in 10 volumes of 20 mM Tris-HCl (pH 7.5) containing 20% glycerol. Following centrifugation at 40,000×g for 30 minutes, proteolytic activity of the chymotrypsin-like component of MCP could be detected in the supernatant (see below). The supernatant was fractionated on a DEAE-Sepharose Fast Flow column equilibrated in homogenization buffer. For each liter of supernatant, 250 ml of resin was used. Following sample loading, the column was washed with ^~ 10 volumes homogenization buffer, and proteins were eluted with a linear NaCl gradient of from 0 to 400 mM (21 for 250 ml resin). Fractions were assayed for MCP activity, and the active fractions were pooled and subjected to precipitation with (NH4)2 SO4 at 80% saturation. Precipitated proteins were collected by centrifugation, resuspended in homogenization buffer, and loaded on a Sephacryl S300HR column (500 ml resin volume) that had been standardized using bovine serum albumin (68 kDa). A single peak of MCP activity was eluted with a molecular weight of ^~ 650 kDa. This preparation was free of other measurable proteolytic activities and maintained its MCP activity upon storage at 4° C. for >6 months. This preparation was used for most of the experiments. Further fractionation of the preparation on an hydroxyapatite-Ultrogel column (Yamamoto et al., supra) yielded a more highly purified enzyme, which according to denaturing SDS-polyacrylamide gel electrophoresis was comprised of the expected >10 subunits ranging in Mr from 20 to 35 kDa.
The procedure for MPC isolation described above generated an enzyme complex whose proteolytic activities were latent, but which could be activated by addition of low concentrations (0.02-0.05%) of SDS (Yamamoto et al., supra). The chymotrypsin-like activity was assayed according to the following procedure: in 96 well microtiter plates, human MCP was diluted 4 to 10-fold in homogenization buffer containing 0.04% SDS. A calorimetric substrate MeOSuc-EVKM-para-nitroanilide (methoxysuccinyl-Glu-Val-Lys-Met-pNa), purchased from Bachem Bioscience Inc., King of Prussia, Pennsylvania was added to a final concentration of 100 μM from a stock solution of 10 mM in dimethylsulfoxide. Reaction volumes were 200 μl per well. After incubation for various periods of time at 37° C., the concentration of free pNa was determined on a Biotech EL-340 microplate reader, reading absorption at 490 nm. Protease activity was determined under conditions in which substrate hydrolysis increased linearly with time and the change in absorption was proportional to the concentration of free pNa. Alternatively, a fluorogenic substrate was used, methoxysuccinyl-Phe-Leu-Phe-amidomethylcoumarin (Enzyme Systems Products, Dublin, Calif.), and the change in fluorescence monitored at an excitation of 390 nm, and an emission at 460 nm.
The trypsin-like activity of human MCP was assayed as described above with the following modifications. Reactions were carried out in Tris-glycerol buffer (pH 9.5) supplemented with 1 mM 2-mercaptoethanol, and the substrate was a fluorogenic substrate, Benzyloxycarbonyl--Phe--Arg--AMC (100 μM).
After incubation for various periods of time at 37° C., the concentration of free AMC was determined on a Fluoroskan II spectrofluorimeter with an excitation filter of 390 nm and an emission filter of 460 nm. Protease activity was determined under conditions in which substrate hydrolysis increased linearly with time and the change in fluorescence was proportional to the concentration of free AMC. […]

Assay [2] deals with Ile113→Thr mutant SOD-1 in human 293 cells. The assay is described as follows: SOD-1 levels in transiently transfected 293 cells (immunoblot). The settings on record: 5 μM, 24 hours, FIG. 5. For orientation: A western blot detects proteins with antibodies after separation by electrophoresis.
Method: The human kidney cell line designated 293 (human 293 cells or 293 cells)was obtained from the American Type Culture Collection (ATCC), 12301 Parklawn Drive, Rockville, Md., 20852 (ATCC #CRL 1573) and grown in Dulbecco's modified Eagle's medium with 4.6 g/L glucose, 10% heat-inactivated horse serum (Gibco/Life Technologies Inc. Gaithersburg, Md.). The human 293 cells were maintained at 37° C. in an atmosphere of 5% CO2. The 293 cells were transiently transfected using the calcium phosphate method (Chen, C. et al., Biotechniques 6: 632 (1988). The pCMV-113 SOD-1 expression vector was introduced into 293 cells and 24 hours later, the cells were incubated with either compound 34, compound 14, or compound 24, all at a concentration of 5 μM, for a duration of 24 hours. The known MCP and other protease inhibitory compounds were solubilized in dimethyl sulfoxide (DMSO). Other 293 cell cultures were incubated with an equal volume of DMSO or left in medium only as negative controls.
Approximately 48 hours prior to receiving test compounds, 5×10^5 293 cells were seeded in 36 mm dishes and maintained at 37° C. in an atmosphere of 5% CO2. Cells were incubated with MCP inhibitors (compound 34, 14 or 24) or with DMSO as a negative control for a duration of 24 hours. Cell lysates were prepared by lysing the cells in approximately 75 μl of phosphate-buffered saline (PBS) by freeze/thaw cycling. Protein concentrations of the cell lysates were determined using the BCA method (Pierce, Rockford, Ill.) and 2 to 2.5 μg of each sample was electrophoresed on a 4-20% polyacrylamide geol (Novex, San Diego, Calif.) using a Tris/glycine/SDS (25 mM Tris/192 mM glycine/0.1% SDS) buffer system. […] Stained bands corresponding to SOD-1 protein were quantitated using a DocuGel V image analysis system and RFLPscan software (Scanalytics, Billerica, Mass.). Levels of SOD-1 are expressed as units of induction relative to the negative control (i.e., units of experimental divided by units of control).
[3] abbreviates: Table 5, first series, enzyme incubated with inhibitor 15 minutes at 37° C. prior to substrate.
Setting [4] is: Table 5, second series (Examples 36-38), enzyme incubated with inhibitor 15 minutes at 37° C. prior to substrate.

In general, IC50 refers to the concentration that inhibits the measured activity by half. Higher therefore signals weaker potency. Turning to `CC(C)C[C@@H](C=NNC(N)=O)NC(=O)[C@H](CCCNC(=N)N[N+](=O)[O-])NC(=O)C(CCCCCCCCC#N)C1CCCC1` (stereo partly drawn) [Compound 16, 10-cyano-2-cyclopentyl-decanoyl-N g-nitro-L-arginyl-L-leucinal semicarbazone], in assay [1], the “Protein, End (day 3 of unweighting)” value is on record as 6.0 mg/muscle; the “Effect (%), change in protein content during day 3 of unweighting” value was -5%; the “Effect (%) on unweighted muscle protein” value came out at 0%; the “Protein, Treatment (unweighted muscle)” value stood at 6.0 mg/muscle. On human MCP (setting [3]), this molecule gave a 50% inhibitory concentration (IC50) of 100 nM.

Consider `CC(C)C[C@@H](C=O)NC(=O)[C@H](CCCNC(=N)N[N+](=O)[O-])NC(=O)C(CCCCCCCCN1C(=O)c2ccccc2C1=O)C1CCCC1` (stereo partly drawn) [Compound 24, 2-cyclopentyl-10-N-phthalimido-decanoyl-N^g-nitro-L-arginyl-L-leucinal], for which the “SOD-1 levels compared to controls” value in assay [2] was “modestly elevated”. The molecule further registered an IC50 on human MCP (setting [3]) of 2 nM.

The molecule `COC(=O)CCCCCCCC(=O)N[C@H](CCCNC(N)=NS(=O)(=O)c1c(C)c(C)c2c(c1C)CCC(C)(C)O2)C(=O)N[C@H](C=O)CC(C)C` [Compound 29, Monomethylazelayl-N^g-(2,2,5,7,8-pentamethylchroman-6-sulfonyl)-D-arginyl-L-leucinal] displayed an IC50 against human MCP (setting [3]) of more than 300 nM.

Molecule `CCCC[C@@H](C=O)NC(=O)[C@H](CCCN=C(N)NS(=O)(=O)c1c(C)c(C)c2c(c1C)CCC(C)(C)O2)NC(=O)CCCCCCCC(=O)OC` [Compound 30, Monomethylazelayl-N^g-(2,2,5,7,8-pentamethylchroman-6-sulfonyl)-L-arginyl-L-norleucinal] showed an IC50 against human MCP (setting [3]) of more than 100 nM.

Turning to `COC(=O)CCCCCCCC(=O)N[C@@H](CCCN=C(N)NS(=O)(=O)c1ccc(C)cc1)C(=O)N[C@H](C=O)CC(C)C` [Compound 31, Monomethylazelayl-N^g -(p-toluenesulfonyl)-L-arginyl-L-leucinal], on human MCP (setting [3]), the IC50 came out at 75 nM.

As for `COC(=O)CCCCCCCC(=O)N[C@@H](CCCNC(N)=NS(=O)(=O)c1c(C)cc(OC)c(C)c1C)C(=O)N[C@H](C=NNC(N)=O)CC(C)C` [Compound 32, Monomethylazelayl-N^g-(4-methoxy,2,3,6-trimethyl-1-sulfonyl)-L-arginyl-L-leucinal semicarbazone], on human MCP (setting [3]), the IC50 turned out to be 220 nM.

`COC(=O)CCCCCCCC(=O)N[C@@H](CCCNC(N)=NS(=O)(=O)c1c(C)cc(OC)c(C)c1C)C(=O)N[C@H](C=NNC(N)=S)CC(C)C` [Compound 33, Monomethylazelayl-N^g-(4-methoxy,2,3,6-trimethyl-1-sulfonyl)-L-arginyl-L-leucinal thiosemicarbazone] gave a half-maximal inhibitory concentration (IC50) on human MCP (setting [3]) of 700 nM.

For the molecule `COC(=O)CCCCCCCC(=O)N[C@@H](CCCNC(N)=NS(=O)(=O)c1c(C)cc(C)cc1C)C(=O)N[C@H](C=O)CC(C)C` [Compound 35, Methoxyazelayl-N^g-(2,4,6-trimethylbenzene-1-sulfonyl)-L-arginyl-L-leucinal], the IC50 on human MCP (setting [3]) turned out to be 40 nM.

On human MCP (setting [4]), `Cc1c(C)c(S(=O)(=O)NC(N)=NCCC[C@H](NS(=O)(=O)CCCCCCC#N)C(=O)N[C@H](C=O)CC(C)C)c(C)c2c1OC(C)(C)CC2` [Compound 36, 6-Cyano-hexane-1-sulfonyl-N^g-(2,2,5,7,8-pentamethylchroman-6-sulfonyl)-L-arginyl-L-leucinal] gave a 50% inhibitory concentration (IC50) of more than 100 nM.

With `CC(C)C[C@@H](C=O)NC(=O)[C@H](CCCNC(=N)N[N+](=O)[O-])NC(=O)c1ccc2ccccc2c1` [Compound 37, 2-Naphthoyl-N^g-nitro-L-arginyl-L-leucinal], on human MCP (setting [4]), the IC50 is 250 nM.

For `CC(C)CC(NC(=O)[C@H](CCCNC(N)=N[N+](=O)[O-])NC(=O)C(CCCCCCCCC#N)C1CCCC1)B1OC(C)(C)C(C)(C)O1` (stereo partly drawn) [Example 40, 10-Cyano-2-cyclopentyl-decanoyl-N^g-nitro-L-arginyl-boroleucine pinacol ester], at human MCP (Table 7), half-maximal inhibition (IC50) was put at 6 nM and the “% Inhibition (1 μM)” value was 100%.

With `N#CCCCCCCCCC(C(=O)N[C@@H](CCCNC(N)=N[N+](=O)[O-])C(=O)NC(Cc1ccccc1)C(=O)CF)C1CCCC1` (stereo partly drawn) [Example 42, 10-Cyano-2-cyclopentyl-decanoyl-N^g-nitro-L-arginyl-phenylalanine fluoromethylketone], at human MCP (Table 7), the IC50 is more than 1000 nM and the “% Inhibition (1 μM)” value is 15%.

As for `COC(CNC(=O)c1ccccc1OCC(=O)O)[CH2][Hg][OH]` (stereo not drawn) [Mersalyl, reference compound], in assay [1], the “Protein, End (day 3 of unweighting)” value came out at 6.6 mg/muscle; the “Effect (%), change in protein content during day 3 of unweighting” value is listed as “+3%”; the “Effect (%) on unweighted muscle protein” value is recorded as 14%; the “Protein, Treatment (unweighted muscle)” value turned out to be 6.6 mg/muscle.

On human MCP (setting [3]), “Monomethylazelayl-N^g -nitro-L-arginyl-L-phenylalaninal [Compound 27]” registered a half-inhibitory concentration (IC50) of 130 nM.
